row,melting point,SMILES
1,146 to 148 °C,"CCOC(Cc1ccc(OCCc2nc(-c3ccccc3)sc2C)c2ccsc12)C(=O)O (racemic) [Example 1, [rac]-2-Ethoxy-3-{4-[2-(5-methyl-2-phenyl-thiazol-4-yl)-ethoxy]-benzo[b]thiophen-7-yl}-propionic acid]"
2,140 to 143 °C,"CCOC(Cc1ccc(OCCc2nc(-c3ccccc3)sc2C)c2ccccc12)C(=O)O (racemic) [Example 51, [rac]-2-Ethoxy-3-{4-[2-(5-methyl-2-phenyl-thiazol-4-yl)-ethoxy]-naphthalen-1-yl}-propionic acid]"
3,126 to 127 °C,"CCOC(Cc1ccc(OCCc2nc(-c3ccc(C)cc3)sc2C)c2ccsc12)C(=O)O (racemic) [Example 72, [rac]-2-Ethoxy-3-{4-[2-(5-methyl-2-p-tolyl-thiazol-4-yl)-ethoxy]-benzo[b]thiophen-7-yl}-propionic acid]"
4,90 to 93 °C,"CCOC(Cc1ccc(OCCc2nc(-c3ccc(C(C)(C)C)cc3)sc2C)c2ccccc12)C(=O)O (racemic) [Example 73, [rac]-3-(4-{2-[2-(4-tert-Butyl-phenyl)-5-methyl-thiazol-4-yl]-ethoxy}-naphthalen-1-yl)-2-ethoxy-propionic acid]"
5,152 to 154 °C,"CCOC(Cc1ccc(OCCc2nc(-c3ccc(C(C)(C)C)cc3)sc2C)c2ccsc12)C(=O)O (racemic) [Example 74, [rac]-3-(4-{2-[2-(4-tert-Butyl-phenyl)-5-methyl-thiazol-4-yl]-ethoxy}-benzo[b]thiophen-7-yl)-2-ethoxy-propionic acid]"
6,120 to 122 °C,"CCOC(Cc1ccc(OCCc2nc(-c3ccc(C(C)C)cc3)sc2C)c2ccsc12)C(=O)O (racemic) [Example 75, [rac]-2-Ethoxy-3-(4-{2-[2-(4-isopropyl-phenyl)-5-methyl-thiazol-4-yl]-ethoxy}-benzo[b]thiophen-7-yl)-propionic acid]"
7,111 to 113 °C,"CCOC(Cc1ccc(OCCc2nc(-c3ccc(C(C)C)cc3)sc2C)c2ccccc12)C(=O)O (racemic) [Example 77, [rac]-2-Ethoxy-3-(4-{2-[2-(4-isopropyl-phenyl)-5-methyl-thiazol-4-yl]-ethoxy}-naphthalen-1-yl)-propionic acid]"
8,140 to 141 °C,"CCOC(Cc1ccc(OCCc2nc(-c3ccc(C)cc3)sc2C)c2ccccc12)C(=O)O (racemic) [Example 78, [rac]-2-Ethoxy-3-{4-[2-(5-methyl-2-p-tolyl-thiazol-4-yl)-ethoxy]-naphthalen-1-yl}-propionic acid]"
9,73 °C,"Cc1sc(-c2ccccc2)nc1CCOc1ccc(CC(OC(C)C)C(=O)O)c2sccc12 (racemic) [Example 79, [rac]-2-Isopropoxy-3-{4-[2-(5-methyl-2-phenyl-thiazol-4-yl)-ethoxy]-benzo[b]thiophen-7-yl}-propionic acid]"
10,95 to 99 °C,"CCCOC(Cc1ccc(OCCc2nc(-c3ccccc3)sc2C)c2ccccc12)C(=O)O (racemic) [Example 80, [rac]-3-{4-[2-(5-Methyl-2-phenyl-thiazol-4-yl)-ethoxy]-naphthalen-1-yl}-2-propoxy-propionic acid]"
11,155 to 156 °C,"COC(Cc1ccc(OCCc2nc(-c3ccc(C)cc3)sc2C)c2ccccc12)C(=O)O (racemic) [Example 81, [rac]-2-Methoxy-3-{4-[2-(5-methyl-2-p-tolyl-thiazol-4-yl)-ethoxy]-naphthalen-1-yl}-propionic acid]"
12,123 to 124 °C,"CCCOC(Cc1ccc(OCCc2nc(-c3ccc(C)cc3)sc2C)c2ccccc12)C(=O)O (racemic) [Example 82, [rac]-3-{4-[2-(5-Methyl-2-p-tolyl-thiazol-4-yl)-ethoxy]-naphthalen-1-yl}-2-propoxy-propionic acid]"
13,148 to 150 °C,"CCOC(Cc1ccc(OCCc2nc(-c3cc(OC)cc(OC)c3)sc2C)c2ccsc12)C(=O)O (racemic) [Example 83, [rac]-3-(4-{2-[2-(3,5-Dimethoxy-phenyl)-5-methyl-thiazol-4-yl]-ethoxy}-benzo[b]thiophen-7-yl)-2-ethoxy-propionic acid]"

# Source: US6809110B2 (Hoffmann-La Roche Inc., priority 2002, dated 2004)
